# Measurements as given in ChEMBL document CHEMBL1156726, “Discovery of a potent and selective aurora kinase inhibitor” (Bioorg Med Chem Lett, 2008).
# Key:
# [1] = molecular target: T1, Aurora kinase A (Homo sapiens, UniProt O14965)
# T1 sequence (O14965 whole entry): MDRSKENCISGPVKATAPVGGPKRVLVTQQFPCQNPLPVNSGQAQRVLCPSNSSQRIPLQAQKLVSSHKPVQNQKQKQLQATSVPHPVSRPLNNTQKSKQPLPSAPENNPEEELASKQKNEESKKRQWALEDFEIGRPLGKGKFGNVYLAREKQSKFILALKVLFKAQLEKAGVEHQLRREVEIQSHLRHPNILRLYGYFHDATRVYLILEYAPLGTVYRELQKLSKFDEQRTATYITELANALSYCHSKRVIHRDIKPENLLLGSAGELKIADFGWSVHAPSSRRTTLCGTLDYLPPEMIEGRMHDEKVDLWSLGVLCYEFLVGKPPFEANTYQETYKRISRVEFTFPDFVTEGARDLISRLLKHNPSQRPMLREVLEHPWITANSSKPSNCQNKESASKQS
# Description: Inhibition of Aurora A by radiometric assay
# [2] = test system: HCT-116; test: Antiproliferative activity against human HCT116 cells assessed as BrdU incorporation; format: functional, cell-based
# [3] = test system: HCT-116; test: Cell cycle arrest in human HCT116 cells assessed as accumulation of 4N DNA phase after 16 hrs by FACS; conditions: HCT-116, 16 h
# [4] = molecular target: Aurora kinase B (Homo sapiens, UniProt Q96GD4); test: Inhibition of Aurora B by radiometric assay
# Chain of Aurora kinase B (Q96GD4 whole entry): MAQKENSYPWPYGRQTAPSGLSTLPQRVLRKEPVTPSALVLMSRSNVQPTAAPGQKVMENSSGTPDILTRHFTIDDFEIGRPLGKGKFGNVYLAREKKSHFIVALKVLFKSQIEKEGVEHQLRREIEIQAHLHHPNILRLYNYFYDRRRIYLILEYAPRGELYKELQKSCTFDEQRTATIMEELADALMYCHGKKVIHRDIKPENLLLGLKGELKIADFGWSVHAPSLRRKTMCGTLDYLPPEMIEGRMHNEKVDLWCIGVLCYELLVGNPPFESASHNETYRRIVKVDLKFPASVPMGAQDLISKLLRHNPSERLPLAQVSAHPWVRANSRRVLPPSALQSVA
# [5] = test system: HCT-116; test: Decrease in histone H3 phosphorylation in human HCT116 cells after 16 hrs by Western blot; conditions: HCT-116, 16 h
# [6] = test system: Mus musculus; test: Decrease in histone H3 phosphorylation in human HCT116 cells xenografted mouse at 100 mg/kg, ip after 10 hrs; format: functional; conditions: HCT-116, ip, route intraperitoneal
# [7] = test system: Mus musculus; test: Decrease in histone H3 phosphorylation in human HCT116 cells xenografted mouse at 50 mg/kg, ip after 6 hrs; format: functional; conditions: HCT-116, ip, route intraperitoneal
# [8] = test system: Mus musculus; test: Decrease in histone H3 phosphorylation in human HCT116 cells xenografted mouse at 50 mg/kg, ip after 10 hrs; format: functional; conditions: HCT-116, ip, route intraperitoneal
# [9] = test system: Mus musculus; test: Decrease in histone H3 phosphorylation in human HCT116 cells xenografted mouse at 100 mg/kg, ip after 6 hrs; format: functional; conditions: HCT-116, ip, route intraperitoneal
# [10] = Drug level in HCT116 xenografted mouse tumor at 100 mg/kg, ip after 10 hrs; format: ADME, organism-based, Neoplasm; design: dose 100 mg/kg, route intraperitoneal; conditions: human, tumor (HCT116 xenograft), read-out: Drug uptake
# [11] = Drug level in HCT116 xenografted mouse tumor at 100 mg/kg, ip after 6 hrs; format: ADME, organism-based, Neoplasm; design: dose 100 mg/kg, route intraperitoneal; conditions: human, tumor (HCT116 xenograft), read-out: Drug uptake
# [12] = Drug level in HCT116 xenografted mouse tumor at 50 mg/kg, ip after 10 hrs; format: ADME, organism-based, Neoplasm; design: dose 50 mg/kg, route intraperitoneal; conditions: human, tumor (HCT116 xenograft), read-out: Drug uptake
# [13] = Drug level in HCT116 xenografted mouse tumor at 50 mg/kg, ip after 6 hrs; format: ADME, organism-based, Neoplasm; design: dose 50 mg/kg, route intraperitoneal; conditions: human, tumor (HCT116 xenograft), read-out: Drug uptake
# [14] = test system: HCT-116; test: Antitumor activity against human HCT116 cells xenografted in mouse at 100 mg/kg, ip administered twice weekly for 3 weeks; format: functional; conditions: HCT-116, ip, 504 h, route intraperitoneal, read-out: TGI
IC50 [1],EC50 [2],EC50 [3],IC50 [4],EC50 [5],SMILES,inhibition in vivo at 50 mg/kg [7],inhibition in vivo at 50 mg/kg [8],also measured
3.2 µM,,,,,O=C(Nc1ccc(CCNc2ncnc3ccsc23)cc1)c1cccc(C(F)(F)F)c1,,,
> 20 µM,,,,,O=C(Nc1cccc(C(F)(F)F)c1)c1ccc(CCNc2ncnc3ccsc23)cc1,,,
1.2 µM,,,,,O=C(Nc1ccc(CCNc2ncnc3ccsc23)cc1)Nc1cccc(C(F)(F)F)c1,,,
> 20 µM,,,,,O=C(Nc1cccc(CCNc2ncnc3ccsc23)c1)Nc1cccc(C(F)(F)F)c1,,,
1.2 µM,,,,,O=C(Nc1cccc(C(F)(F)F)c1)Nc1cn(CCNc2ncnc3ccsc23)cn1,,,
0.05 µM,0.034 µM,0.016 µM,,,COc1cccc(NC(=O)Nc2ncc(CCNc3ncnc4ccsc34)s2)c1,,,
> 10 µM,,,0.58 µM,,O=C(Cc1cccc(C(F)(F)F)c1)Nc1ncc(CCNc2ncnc3ccsc23)s1,,,IC50 [2]: > 10 µM
0.041 µM,0.014 µM,< 0.016 µM,,,C#Cc1cccc(NC(=O)Nc2ncc(CCNc3ncnc4ccsc34)s2)c1,,,
4.9 µM,,,0.442 µM,,O=C(Cc1ncc(CCNc2ncnc3ccsc23)s1)Nc1cccc(C(F)(F)F)c1,,,
,,< 0.016 µM,0.014 µM,< 0.016 µM,O=C(Nc1cccc(C(F)(F)F)c1)Nc1ncc(CCNc2ncnc3ccsc23)s1,75%,50%,inhibition in vivo at 100 mg/kg [6]: 75%; inhibition in vivo at 100 mg/kg [9]: 75%
2.5 µM,,1 µM,,,O=C(Nc1ncc(CCNc2ncnc3ccsc23)s1)c1cccc(C(F)(F)F)c1,,,
7.2 µM,,,,,CN(C(=O)Nc1ncc(CCNc2ncnc3ccsc23)s1)c1ccccc1,,,IC50 [2]: > 10 µM
0.039 µM,0.03 µM,0.016 µM,,,O=C(Nc1ccc(Cl)cc1)Nc1ncc(CCNc2ncnc3ccsc23)s1,,,
0.28 µM,0.376 µM,> 0.25 µM,,,O=C(Nc1ncc(CCNc2ncnc3ccsc23)s1)Nc1ccccc1Cl,,,
0.004 µM,0.006 µM,< 0.016 µM,0.022 µM,0.016 µM,O=C(Nc1cc(CN2CCCC2)cc(C(F)(F)F)c1)Nc1ncc(CCNc2ncnc3ccsc23)s1,25%,0%,concentration at 10 h [10]: 8.76 µM; inhibition in vivo at 100 mg/kg [6]: 25%; concentration at 6 h [11]: 6.2 µM; inhibition in vivo at 100 mg/kg [9]: 50%
0.03 µM,0.031 µM,0.016 µM,0.019 µM,0.016 µM,O=C(Nc1ncc(CCNc2ncnc3ccsc23)s1)Nc1cccc2cc[nH]c12,75%,75%,concentration at 10 h [10]: 4.36 µM; concentration at 10 h [12]: 3.67 µM; inhibition in vivo at 100 mg/kg [6]: 75%; concentration at 6 h [13]: 4.82 µM; concentration at 6 h [11]: 16.9 µM; inhibition in vivo at 100 mg/kg [9]: 75%
0.27 µM,0.072 µM,0.063 µM,0.061 µM,,O=C(Nc1ncc(CCNc2ncnc3ccsc23)s1)NC1CCCCC1,,,
0.096 µM,0.024 µM,0.016 µM,0.013 µM,0.016 µM,O=C(Nc1ccc(Cl)c(Cl)c1)Nc1ncc(CCNc2ncnc3ccsc23)s1,0%,0%,concentration at 10 h [10]: 54.8 µM; concentration at 10 h [12]: 12.5 µM; inhibition in vivo at 100 mg/kg [6]: 25%; concentration at 6 h [13]: 21.3 µM; concentration at 6 h [11]: 49.5 µM; inhibition in vivo at 100 mg/kg [9]: 25%
0.023 µM,0.006 µM,< 0.016 µM,0.018 µM,< 0.016 µM,O=C(Nc1cccc(F)c1)Nc1ncc(CCNc2ncnc3ccsc23)s1,25%,0%,concentration at 10 h [10]: 19.8 µM; concentration at 10 h [12]: < 1 µM; inhibition in vivo at 100 mg/kg [6]: 25%; concentration at 6 h [13]: 1.2 µM; concentration at 6 h [11]: 101 µM; inhibition in vivo at 100 mg/kg [9]: 75%
> 20 µM,,,,,O=C(Nc1cccc(C(F)(F)F)c1)Nc1nc(CCNc2ncnc3ccsc23)cs1,,,
0.009 µM,0.019 µM,< 0.016 µM,0.054 µM,,Cc1cccc(NC(=O)Nc2ncc(CCNc3ncnc4ccsc34)s2)c1,,,
0.25 µM,,,,,O=C(Nc1cccc(C(F)(F)F)c1)Nc1cn(CCNc2ncnc3ccsc23)nn1,,,
0.053 µM,0.121 µM,0.016 µM,0.12 µM,0.063 µM,O=C(Nc1cccc(CCN2CCC2)c1)Nc1ncc(CCNc2ncnc3ccsc23)s1,0%,0%,concentration at 10 h [12]: < 1 µM; concentration at 6 h [13]: < 1 µM
0.011 µM,0.005 µM,< 0.016 µM,0.051 µM,< 0.016 µM,O=C(Nc1ccc(F)c(Cl)c1)Nc1ncc(CCNc2ncnc3ccsc23)s1,75%,25%,concentration at 10 h [10]: 56.1 µM; concentration at 10 h [12]: 15.6 µM; inhibition in vivo at 100 mg/kg [6]: 50%; concentration at 6 h [13]: 25.8 µM; concentration at 6 h [11]: 112 µM; inhibition in vivo at 100 mg/kg [9]: 75%
,,< 0.016 µM,,< 0.016 µM,CS(=O)(=O)O.O=C(Nc1cccc(Cl)c1)Nc1ncc(CCNc2ncnc3ccsc23)s1 [SNS-314 MESYLATE],75%,50%,concentration at 10 h [10]: 31.6 µM; concentration at 10 h [12]: 3.72 µM; inhibition in vivo at 100 mg/kg [6]: 75%; concentration at 6 h [13]: 9.07 µM; concentration at 6 h [11]: 28.6 µM; inhibition in vivo at 100 mg/kg [9]: 75%; inhibition in vivo at 100 mg/kg [14]: 96%

SMILES,IC50 [1],EC50 [2],EC50 [3],IC50 [4],EC50 [5],inhibition in vivo at 50 mg/kg [7],inhibition in vivo at 50 mg/kg [8],also measured
O=C(Nc1ccccc1)Nc1ncc(CCNc2ncnc3ccsc23)s1,0.052 µM,,,0.12 µM,,,,
